# Patent US20220280644A1, “"TRPswitch" - A STEP FUNCTION CHEMO-OPTOGENETIC LIGAND” (UNIVERSITY OF UTAH RESEARCH FOUNDATION, priority 2019, published 2022)
# Key:
# [1] = tested on: wild-type zebrafish larvae; experiment: Behavioral assay: light-induced motion response of wild-type larvae; assay type: in vivo, Zebrafish (Danio rerio); conditions: DABCO, singlet oxygen quencher
# Description: A total of 1,000 compounds were selected from the ChemBridge Corp. catalog. Compounds were dissolved in DMSO at a stock concentration of 1 μg/μL (˜1.5 mM). The library was screened at a 1:100 dilution in E3 solution for a final concentration of ˜15 μM. Negative controls were treated with an equal volume of DMSO. Groups of 3 larvae at 3 days post fertilization (dpf) were distributed into the wells of 96-well clear bottom black microplates (07-200-567; Fisher Scientific) in 150 μL E3 before the addition of small molecules. Stock solutions of compounds were added directly to zebrafish in the wells of a 96 well plate (Corning 3631), mixed, and allowed to incubate for 1 h in the dark at 28.5° C. prior to behavioral evaluation in the behavioral assay. Ordering information: 1 (5533696; ChemBridge); 3 (5538408; ChemBridge).
# Larvae in each of the wells were exposed to four 1 second flashes of light stimulus in the following order: 450-500 nm (WL1), 415-455 nm (WL2), 352-402 nm (WL3), white light (WL4), with a 5 second inter-stimulus interval. Digital video recording was performed for 5 seconds before the first light stimuli and continued throughout the stimulation sequence. Band pass filters (Semrock FF02-475/50, FF02-435/40, FF01-377/50) were used to restrict the excitation light to the indicated wavelengths. […] 290 frames of digital video were recorded per well at 10 FPS using an EMCCD camera (C9100; Hamamatsu) mounted on an inverted compound microscope (AxioObserver A1; Zeiss) with a NA 0.03 1.25× objective and a barrier with a 0.7 mm diameter opening to restrict light scattering to the sample. MetaMorph software (Molecular Devices) was used to control the execution of TTL signals and camera capture using the built-in stream acquisition with trigger function. Each video was saved for review. Light stimuli were generated with an ozone free 300-Watt xenon bulb housed in a Lambda LS illuminator (Sutter Instruments). A dichroic mirror (T510LPXRXT; Chroma) was used for appropriate excitation of samples and bright field acquisition. Schott longpass absorption glass (RG610; Chroma) was added in the transmitted light path to reduce unwanted excitation to the well and to provide sufficient light for video recording. All behavioral experiments were conducted at room temperature. […]
# To analyze digital video recordings, custom MetaMorph software scripts were used to automatically threshold the video to identify the area of larvae in each frame. Threshold images of the frames after each light activation event were overlaid to calculate a new combined threshold area. The motion index was calculated as the percentage change between the threshold area in the frame right before light activation and the new combined threshold area. This motion index correlates with the overall amount of motion in the well.
# [2] = tested on: wild-type zebrafish larvae; conditions: reference [23]; cited from earlier work
# Trpa1b mutant larvae = conditions: previously identified; cited from earlier work
compound,measurement,setting,value
Cc1cc(/C=C2/SC(=S)NC2=O)c(C)n1-c1cccnc1 [optovin],effect of DABCO on light-induced motion response,[1],abolished
same,suppression of response by DABCO,[2],completely suppress
same,activity in Trpa1b mutant zebrafish,Trpa1b mutant larvae,abolished
